According to PubChem BioAssay AID2060903 (Molecular Pharmacology Branch, DTP, NCI, 2025):

Tested on: 377384-186-R-J1-PDC complex spheroid viability
Assay: Anticancer human tumor 377384-186-R-J1-PDC patient-derived pancreatic carcinoma cell line growth inhibition [RAS]
Conditions: for IC50: curve of first compound; for viability, T/C: stronger effect = lower value
Summary of the method: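 Multi-cell-type spheroids: tumor cells plus HUVEC endothelial cells and mesenchymal stem cells. RAS-pathway inhibitors were combined with targeted agents, each dosed in half-log steps down from clinical Cmax, or from 10 microM when Cmax was unknown.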

[1] = second compound 0.00316 µM, first compound 0.0316 µM
[2] = second compound 0.00316 µM, first compound 0.1 µM
[3] = second compound 0.00316 µM, first compound 0.316 µM
[4] = second compound 0.00316 µM, first compound 1 µM
[5] = second compound 0.00316 µM, first compound 3.16 µM
[6] = second compound 0.00316 µM, first compound 10 µM
[7] = second compound 0.01 µM, first compound 0.0316 µM
[8] = second compound 0.01 µM, first compound 0.1 µM
[9] = second compound 0.01 µM, first compound 0.316 µM
[10] = second compound 0.01 µM, first compound 1 µM
[11] = second compound 0.01 µM, first compound 3.16 µM
[12] = second compound 0.01 µM, first compound 10 µM
[13] = second compound 0.0316 µM, first compound 0.0316 µM
[14] = second compound 0.0316 µM, first compound 0.1 µM
[15] = second compound 0.0316 µM, first compound 0.316 µM
[16] = second compound 0.0316 µM, first compound 1 µM
[17] = second compound 0.0316 µM, first compound 3.16 µM
[18] = second compound 0.0316 µM, first compound 10 µM
[19] = second compound 0.1 µM, first compound 0.0316 µM
[20] = second compound 0.1 µM, first compound 0.1 µM
[21] = second compound 0.1 µM, first compound 0.316 µM
[22] = second compound 0.1 µM, first compound 1 µM
[23] = second compound 0.1 µM, first compound 3.16 µM
[24] = second compound 0.1 µM, first compound 10 µM
[25] = second compound 0.316 µM, first compound 0.0316 µM
[26] = second compound 0.316 µM, first compound 0.1 µM
[27] = second compound 0.316 µM, first compound 0.316 µM
[28] = second compound 0.316 µM, first compound 1 µM
[29] = second compound 0.316 µM, first compound 3.16 µM
[30] = second compound 0.316 µM, first compound 10 µM
[31] = second compound 1 µM, first compound 0.0316 µM
[32] = second compound 1 µM, first compound 0.1 µM
[33] = second compound 1 µM, first compound 0.316 µM
[34] = second compound 1 µM, first compound 1 µM
[35] = second compound 1 µM, first compound 3.16 µM
[36] = second compound 1 µM, first compound 10 µM
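Further: spheroids exposed to compounds for seven days before readout.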

Q: With `CC(C)NCC(C(=O)N1CCN(c2ncnc3c2C(C)CC3O)CC1)c1ccc(Cl)cc1` (stereo unspecified) + C=CC(=O)N1CCN(c2nc(OCC3CCCN3C)nc3c(F)c(-c4nc(N)cc(C)c4C(F)(F)F)c(Cl)cc23)C(C)C1 as the compound, how does the IC50 (second compound 0.00316 µM) read?
A: 2320 nM

Q: What about the IC50 (second compound 0.01 µM) of the same compound?
A: 2670 nM

Q: And the IC50 (second compound 0.0316 µM)?
A: 2780 nM

Q: What about the IC50 (second compound 0.1 µM) of the same compound?
A: 2450 nM

Q: And the IC50 (second compound 0.316 µM)?
A: 1760 nM

Q: And the IC50 (second compound 1 µM)?
A: 2060 nM

Q: And the viability, T/C [1]?
A: 80.9%

Q: What about the viability, T/C [2] of the same compound?
A: 95%

Q: And the viability, T/C [3]?
A: 87.4%

Q: What about the viability, T/C [4] of the same compound?
A: 61.7%

Q: What about the viability, T/C [5] of the same compound?
A: 48.6%

Q: And the viability, T/C [6]?
A: 32.6%

Q: And the viability, T/C [7]?
A: 96.8%

Q: And the viability, T/C [8]?
A: 78.1%

Q: What about the viability, T/C [9] of the same compound?
A: 73.7%

Q: What about the viability, T/C [10] of the same compound?
A: 63.3%

Q: And the viability, T/C [11]?
A: 46.4%

Q: And the viability, T/C [12]?
A: 35.9%

Q: And the viability, T/C [13]?
A: 91.3%

Q: What about the viability, T/C [14] of the same compound?
A: 96.7%

Q: And the viability, T/C [15]?
A: 70%

Q: What about the viability, T/C [16] of the same compound?
A: 67.1%

Q: And the viability, T/C [17]?
A: 47.4%

Q: What about the viability, T/C [18] of the same compound?
A: 38.1%

Q: What about the viability, T/C [19] of the same compound?
A: 99.8%

Q: And the viability, T/C [20]?
A: 85%

Q: And the viability, T/C [21]?
A: 86.5%

Q: And the viability, T/C [22]?
A: 58.7%

Q: What about the viability, T/C [23] of the same compound?
A: 48.2%

Q: And the viability, T/C [24]?
A: 35.5%

Q: What about the viability, T/C [25] of the same compound?
A: 89.4%

Q: What about the viability, T/C [26] of the same compound?
A: 102%

Q: What about the viability, T/C [27] of the same compound?
A: 80.9%

Q: And the viability, T/C [28]?
A: 56%

Q: And the viability, T/C [29]?
A: 47.8%

Q: What about the viability, T/C [30] of the same compound?
A: 35%

Q: And the viability, T/C [31]?
A: 91.8%

Q: What about the viability, T/C [32] of the same compound?
A: 97%

Q: What about the viability, T/C [33] of the same compound?
A: 75.1%

Q: And the viability, T/C [34]?
A: 61.7%

Q: And the viability, T/C [35]?
A: 44.4%

Q: What about the viability, T/C [36] of the same compound?
A: 32.8%

Q: Which IC50 (second compound 0.00316 µM) does the source give for `CC(C)n1nc(-c2ccc3oc(N)nc3c2)c2c(N)ncnc21` + C=CC(=O)N1CCN(c2nc(OCC3CCCN3C)nc3c(F)c(-c4nc(N)cc(C)c4C(F)(F)F)c(Cl)cc23)C(C)C1 here?
A: 12.2 nM

Q: And the IC50 (second compound 0.01 µM)?
A: 15 nM

Q: And the IC50 (second compound 0.0316 µM)?
A: 15.7 nM

Q: What about the IC50 (second compound 0.1 µM) of the same compound?
A: 11.3 nM

Q: And the IC50 (second compound 0.316 µM)?
A: 12.7 nM

Q: What about the IC50 (second compound 1 µM) of the same compound?
A: 15.2 nM

Q: What about the viability, T/C (second compound 0.00316 µM, first compound 0.000316 µM) of the same compound?
A: 93.6%

Q: What about the viability, T/C (second compound 0.00316 µM, first compound 0.001 µM) of the same compound?
A: 80.3%

Q: What about the viability, T/C (second compound 0.00316 µM, first compound 0.00316 µM) of the same compound?
A: 76%

Q: And the viability, T/C (second compound 0.00316 µM, first compound 0.01 µM)?
A: 50.8%

Q: What about the viability, T/C [1] of the same compound?
A: 35.4%

Q: And the viability, T/C [2]?
A: 21.1%

Q: And the viability, T/C (second compound 0.01 µM, first compound 0.000316 µM)?
A: 87.2%

Q: What about the viability, T/C (second compound 0.01 µM, first compound 0.001 µM) of the same compound?
A: 83.1%

Q: What about the viability, T/C (second compound 0.01 µM, first compound 0.00316 µM) of the same compound?
A: 68.2%

Q: And the viability, T/C (second compound 0.01 µM, first compound 0.01 µM)?
A: 59.4%

Q: What about the viability, T/C [7] of the same compound?
A: 36.6%

Q: And the viability, T/C [8]?
A: 19.9%

Q: And the viability, T/C (second compound 0.0316 µM, first compound 0.000316 µM)?
A: 90.5%

Q: What about the viability, T/C (second compound 0.0316 µM, first compound 0.001 µM) of the same compound?
A: 76.3%

Q: What about the viability, T/C (second compound 0.0316 µM, first compound 0.00316 µM) of the same compound?
A: 64.7%

Q: And the viability, T/C (second compound 0.0316 µM, first compound 0.01 µM)?
A: 61.8%

Q: What about the viability, T/C [13] of the same compound?
A: 40%

Q: And the viability, T/C [14]?
A: 17.4%

Q: And the viability, T/C (second compound 0.1 µM, first compound 0.000316 µM)?
A: 91.5%

Q: What about the viability, T/C (second compound 0.1 µM, first compound 0.001 µM) of the same compound?
A: 77.2%

Q: And the viability, T/C (second compound 0.1 µM, first compound 0.00316 µM)?
A: 67.4%

Q: What about the viability, T/C (second compound 0.1 µM, first compound 0.01 µM) of the same compound?
A: 50.5%

Q: What about the viability, T/C [19] of the same compound?
A: 37.9%

Q: What about the viability, T/C [20] of the same compound?
A: 23.7%

Q: And the viability, T/C (second compound 0.316 µM, first compound 0.000316 µM)?
A: 81.3%

Q: And the viability, T/C (second compound 0.316 µM, first compound 0.001 µM)?
A: 82.2%

Q: And the viability, T/C (second compound 0.316 µM, first compound 0.00316 µM)?
A: 70%

Q: What about the viability, T/C (second compound 0.316 µM, first compound 0.01 µM) of the same compound?
A: 48.5%

Q: And the viability, T/C [25]?
A: 40%

Q: And the viability, T/C [26]?
A: 18%

Q: And the viability, T/C (second compound 1 µM, first compound 0.000316 µM)?
A: 89.7%

Q: And the viability, T/C (second compound 1 µM, first compound 0.001 µM)?
A: 89.2%

Q: What about the viability, T/C (second compound 1 µM, first compound 0.00316 µM) of the same compound?
A: 81.7%

Q: What about the viability, T/C (second compound 1 µM, first compound 0.01 µM) of the same compound?
A: 55.4%

Q: What about the viability, T/C [31] of the same compound?
A: 37.7%

Q: What about the viability, T/C [32] of the same compound?
A: 20.4%

Q: What does the source list for `C[C@@H](NC(=O)c1ncnc(N)c1Cl)c1ncc(C(=O)Nc2cc(C(F)(F)F)c(Cl)cn2)s1` + C=CC(=O)N1CCN(c2nc(OCC3CCCN3C)nc3c(F)c(-c4nc(N)cc(C)c4C(F)(F)F)c(Cl)cc23)C(C)C1?
A: IC50 (second compound 0.00316 µM): > 10000 nM; IC50 (second compound 0.01 µM): > 10000 nM; IC50 (second compound 0.0316 µM): > 10000 nM; IC50 (second compound 0.1 µM): > 10000 nM; IC50 (second compound 0.316 µM): > 10000 nM; IC50 (second compound 1 µM): > 10000 nM; viability, T/C [1]: 90%; viability, T/C [2]: 85.2%; viability, T/C [3]: 83.8%; viability, T/C [4]: 108%; viability, T/C [5]: 120%; viability, T/C [6]: 122%; viability, T/C [7]: 98.5%; viability, T/C [8]: 86.3%; viability, T/C [9]: 102%; viability, T/C [10]: 118%; viability, T/C [11]: 122%; viability, T/C [12]: 131%; viability, T/C [13]: 98.4%; viability, T/C [14]: 87.8%; viability, T/C [15]: 101%; viability, T/C [16]: 118%; viability, T/C [17]: 116%; viability, T/C [18]: 130%; viability, T/C [19]: 84%; viability, T/C [20]: 103%; viability, T/C [21]: 92.3%; viability, T/C [22]: 115%; viability, T/C [23]: 120%; viability, T/C [24]: 124%; viability, T/C [25]: 98.3%; viability, T/C [26]: 87.1%; viability, T/C [27]: 119%; viability, T/C [28]: 115%; viability, T/C [29]: 143%; viability, T/C [30]: 134%; viability, T/C [31]: 93.9%; viability, T/C [32]: 109%; viability, T/C [33]: 110%; viability, T/C [34]: 115%; viability, T/C [35]: 122%; viability, T/C [36]: 118%
